Source: patent publication US20080009418A1, “Selective Inhibitors” (Alchemia LTD., priority 2004, published 2008)

Columns and labels:
[1] = target: T1, Human neurokinin (NK1) (Homo sapiens, UniProt P25103); assay: Radioligand binding, human neurokinin NK1 membranes, filtration, [125I]-Substance P; conditions: compound at 10 μM; for A8 radioligand binding inhibition: human neurokinin NK1 membranes
T1 construct: purchased Perkin Elmer Biosignal
How it was run: (§1)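 Membranes from cloned human receptors were incubated with compound and radioligand for 1 hour at room temperature. Bound ligand was collected on 0.3% PEI-soaked filters, washed with cold 50 mM Tris-HCl pH 7.4, and counted by scintillation. Percent inhibition was computed against DMSO totals and reference-ligand nonspecific wells.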

[2] = target: T2, Human Melanocortin (MC3) (Homo sapiens, UniProt P41968); assay: Radioligand binding, human melanocortin MC3 membranes, FlashPlate, [125I]-NDP-αMSH; conditions: compound at 10 μM; for A3 radioligand binding inhibition: human melanocortin MC3 membranes
T2 construct: purchased Perkin Elmer Biosignal
How it was run: (§2)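 Cloned human receptor membranes were coated onto FlashPlate wells and incubated with radioligand and compound (added from a 0.5 mM DMSO daughter plate) for 1 hour at room temperature in the dark. Scintillation counting gave percent inhibition, with DMSO defining total and reference ligand defining non-specific binding.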

[3] = target: T3, Human melanocortin (MC5) (Homo sapiens, UniProt P33032); assay: Radioligand binding, human melanocortin MC5 membranes, FlashPlate, [125I]-NDP-αMSH; conditions: compound at 10 μM; for A5 radioligand binding inhibition: human melanocortin MC5 membranes
T3 construct: purchased Perkin Elmer Biosignal
How it was run: as §2

[4] = target: T4, Human κ-Opioid (KOP) (Homo sapiens, UniProt P41145); assay: Radioligand binding, human κ-opioid (KOP) membranes, filtration, [3H]-Diprenorphine; conditions: compound at 10 μM; for A2 radioligand binding inhibition: human κ-opioid (KOP) membranes
T4 construct: purchased Perkin Elmer Biosignal
How it was run: as §1

[5] = target: T5, Human opioid (ORL1) (Homo sapiens, UniProt P41146); assay: Radioligand binding, human opioid ORL1 membranes, FlashPlate, [125I]-Nociceptin; conditions: compound at 10 μM
T5 construct: purchased Perkin Elmer Biosignal
How it was run: as §2

[6] = target: T6, Human melanin-concentrating hormone (MCH1) (Homo sapiens, UniProt Q99705); assay: Radioligand binding, human melanin-concentrating hormone MCH1 membranes, FlashPlate, [125I]-S36057; conditions: compound at 10 μM; for A6 radioligand binding inhibition: human MCH1 membranes; for A6 radioligand binding, percentage inhibition: [125I]-S36057
T6 construct: purchased Perkin Elmer Biosignal
How it was run: as §2

[7] = target: T7, Human δ-opioid (DOP) (Homo sapiens, UniProt P41143); assay: Radioligand binding, human δ-opioid (DOP) membranes, FlashPlate, [3H]-Bremazocine; conditions: compound at 10 μM; for A1 radioligand binding inhibition: human δ-opioid (DOP) membranes
T7 construct: purchased Perkin Elmer Biosignal
How it was run: as §2

[8] = target: T8, Human neuropeptide Y (NPY-Y1) (Homo sapiens, UniProt P25929); assay: Radioligand binding, human neuropeptide Y NPY-Y1 membranes, FlashPlate, [125I]-PYY; conditions: compound at 10 μM
T8 construct: purchased Perkin Elmer Biosignal
T8 sequence (P25929 1-384): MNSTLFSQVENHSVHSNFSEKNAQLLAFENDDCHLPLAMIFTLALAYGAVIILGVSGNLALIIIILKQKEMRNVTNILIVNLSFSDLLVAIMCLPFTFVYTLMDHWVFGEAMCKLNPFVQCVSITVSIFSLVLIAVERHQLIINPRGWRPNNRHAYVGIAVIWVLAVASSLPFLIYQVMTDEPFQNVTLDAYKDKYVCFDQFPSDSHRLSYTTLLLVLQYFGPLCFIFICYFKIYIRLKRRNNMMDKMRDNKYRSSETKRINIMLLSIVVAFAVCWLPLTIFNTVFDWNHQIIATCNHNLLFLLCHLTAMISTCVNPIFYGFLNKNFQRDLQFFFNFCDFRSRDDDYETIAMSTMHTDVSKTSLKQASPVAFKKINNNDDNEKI
How it was run: as §2

[9] = target: T9, Human Melanocortin (MC4) (Homo sapiens, UniProt P32245); assay: Radioligand binding, human melanocortin MC4 membranes, FlashPlate, [125I]-NDP-αMSH; conditions: compound at 10 μM; for A4 radioligand binding inhibition: human melanocortin MC4 membranes
T9 construct: purchased Perkin Elmer Biosignal
How it was run: as §2

[10] = target: T10, Mouse urotensin (mUR2) (Mus musculus, UniProt Q8VIH9); assay: Radioligand binding, mouse urotensin mUR2 membranes, FlashPlate, [125I]-Urotensin II; conditions: compound at 10 μM; for A11 radioligand binding inhibition: mouse urotensin mUR2 membranes
T10 construct: purchased Perkin Elmer Biosignal
T10 sequence (Q8VIH9 1-385): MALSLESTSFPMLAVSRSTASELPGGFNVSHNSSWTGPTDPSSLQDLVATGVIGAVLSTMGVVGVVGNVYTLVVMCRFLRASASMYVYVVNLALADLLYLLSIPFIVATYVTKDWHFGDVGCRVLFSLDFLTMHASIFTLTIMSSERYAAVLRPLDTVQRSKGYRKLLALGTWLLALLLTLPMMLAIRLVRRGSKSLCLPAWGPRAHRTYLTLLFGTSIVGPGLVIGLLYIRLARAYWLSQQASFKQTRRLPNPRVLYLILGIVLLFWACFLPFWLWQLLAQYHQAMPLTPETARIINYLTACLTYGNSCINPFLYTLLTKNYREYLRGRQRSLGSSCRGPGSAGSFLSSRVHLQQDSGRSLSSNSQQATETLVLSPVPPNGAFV
How it was run: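 Cloned mouse urotensin (mUR2) receptor membranes from Perkin Elmer Biosignal were immobilized in FlashPlate microplates using a proprietary coating. Each well got 19.5 μl buffer, then 0.5 μl of DMSO, reference ligand, or compound. Adding 5 μl of [125I]-Urotensin II, diluted to 5× final concentration in binding buffer, started binding. Plates were sealed with TopSeal-A and incubated 1 hour at room temperature in the dark. Wells were counted for 30 seconds each on a TopCount after a 60-second delay, and percentage inhibition was calculated.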

[11] = target: T11, Human μ-opioid (MOP) (Homo sapiens, UniProt P35372); assay: Radioligand binding, human μ-opioid (MOP) membranes, FlashPlate, [3H]-Naloxone; conditions: compound at 10 μM; for A7 radioligand binding inhibition: human μ-opioid (MOP) membranes
T11 construct: purchased Perkin Elmer Biosignal
How it was run: as §2

T2 sequence (P41968 whole entry): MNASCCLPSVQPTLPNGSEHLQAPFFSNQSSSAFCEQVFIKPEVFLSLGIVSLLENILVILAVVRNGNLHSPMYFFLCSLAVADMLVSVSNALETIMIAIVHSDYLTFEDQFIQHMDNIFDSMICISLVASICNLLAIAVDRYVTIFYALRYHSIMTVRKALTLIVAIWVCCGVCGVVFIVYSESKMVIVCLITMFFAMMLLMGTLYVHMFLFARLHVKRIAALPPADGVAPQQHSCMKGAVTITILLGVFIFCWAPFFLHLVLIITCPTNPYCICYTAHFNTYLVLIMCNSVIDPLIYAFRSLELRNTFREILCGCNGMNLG
T4 sequence (P41145 whole entry): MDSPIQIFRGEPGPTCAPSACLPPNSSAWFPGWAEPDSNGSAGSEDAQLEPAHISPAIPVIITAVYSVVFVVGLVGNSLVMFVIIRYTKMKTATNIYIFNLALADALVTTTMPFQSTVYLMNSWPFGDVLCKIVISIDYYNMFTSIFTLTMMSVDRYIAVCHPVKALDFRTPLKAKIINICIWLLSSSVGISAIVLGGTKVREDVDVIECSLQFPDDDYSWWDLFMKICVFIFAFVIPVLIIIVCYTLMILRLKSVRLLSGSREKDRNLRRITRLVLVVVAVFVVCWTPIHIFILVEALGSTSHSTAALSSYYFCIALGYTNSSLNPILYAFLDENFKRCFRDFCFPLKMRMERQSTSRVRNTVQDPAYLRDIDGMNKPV
T1 sequence (P25103 whole entry): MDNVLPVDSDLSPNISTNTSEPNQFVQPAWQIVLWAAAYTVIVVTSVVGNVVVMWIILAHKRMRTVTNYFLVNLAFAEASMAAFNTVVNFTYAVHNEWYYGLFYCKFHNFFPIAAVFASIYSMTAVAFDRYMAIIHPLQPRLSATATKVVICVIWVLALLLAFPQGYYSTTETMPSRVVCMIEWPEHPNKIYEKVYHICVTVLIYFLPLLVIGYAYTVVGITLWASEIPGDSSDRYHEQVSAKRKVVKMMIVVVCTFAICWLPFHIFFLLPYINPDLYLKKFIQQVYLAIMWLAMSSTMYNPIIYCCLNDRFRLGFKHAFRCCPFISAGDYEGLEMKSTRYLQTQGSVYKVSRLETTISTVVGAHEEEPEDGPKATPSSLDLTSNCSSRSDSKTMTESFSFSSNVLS
T5 sequence (P41146 whole entry): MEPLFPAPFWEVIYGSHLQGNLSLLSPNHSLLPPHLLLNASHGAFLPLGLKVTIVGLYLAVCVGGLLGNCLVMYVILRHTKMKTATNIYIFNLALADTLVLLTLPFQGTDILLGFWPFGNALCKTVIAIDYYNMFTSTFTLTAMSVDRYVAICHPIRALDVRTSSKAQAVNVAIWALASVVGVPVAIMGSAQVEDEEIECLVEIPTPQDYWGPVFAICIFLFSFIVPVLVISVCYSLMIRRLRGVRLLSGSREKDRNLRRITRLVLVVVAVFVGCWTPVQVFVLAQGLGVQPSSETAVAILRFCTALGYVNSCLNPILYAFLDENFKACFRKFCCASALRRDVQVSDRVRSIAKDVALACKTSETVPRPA
T6 sequence (Q99705 whole entry): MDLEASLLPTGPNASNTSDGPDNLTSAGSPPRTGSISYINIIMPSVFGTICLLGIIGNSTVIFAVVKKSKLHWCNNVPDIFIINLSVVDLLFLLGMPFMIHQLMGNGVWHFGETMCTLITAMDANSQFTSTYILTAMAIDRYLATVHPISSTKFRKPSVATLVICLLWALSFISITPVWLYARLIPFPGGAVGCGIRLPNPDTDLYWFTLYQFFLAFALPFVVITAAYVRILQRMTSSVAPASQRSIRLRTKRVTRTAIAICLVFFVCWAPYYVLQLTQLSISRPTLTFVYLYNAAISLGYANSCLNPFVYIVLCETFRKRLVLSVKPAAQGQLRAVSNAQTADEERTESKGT
T7 sequence (P41143 whole entry): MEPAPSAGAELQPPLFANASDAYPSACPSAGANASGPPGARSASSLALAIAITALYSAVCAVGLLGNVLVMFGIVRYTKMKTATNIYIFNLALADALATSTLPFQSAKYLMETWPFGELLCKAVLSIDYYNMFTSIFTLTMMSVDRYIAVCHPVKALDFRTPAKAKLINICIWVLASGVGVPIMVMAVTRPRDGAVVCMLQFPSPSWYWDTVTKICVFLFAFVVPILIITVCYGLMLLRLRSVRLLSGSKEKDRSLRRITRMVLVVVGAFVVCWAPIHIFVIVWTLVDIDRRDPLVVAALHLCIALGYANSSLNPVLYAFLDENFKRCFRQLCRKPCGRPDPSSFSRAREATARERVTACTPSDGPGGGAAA
T11 sequence (P35372 whole entry): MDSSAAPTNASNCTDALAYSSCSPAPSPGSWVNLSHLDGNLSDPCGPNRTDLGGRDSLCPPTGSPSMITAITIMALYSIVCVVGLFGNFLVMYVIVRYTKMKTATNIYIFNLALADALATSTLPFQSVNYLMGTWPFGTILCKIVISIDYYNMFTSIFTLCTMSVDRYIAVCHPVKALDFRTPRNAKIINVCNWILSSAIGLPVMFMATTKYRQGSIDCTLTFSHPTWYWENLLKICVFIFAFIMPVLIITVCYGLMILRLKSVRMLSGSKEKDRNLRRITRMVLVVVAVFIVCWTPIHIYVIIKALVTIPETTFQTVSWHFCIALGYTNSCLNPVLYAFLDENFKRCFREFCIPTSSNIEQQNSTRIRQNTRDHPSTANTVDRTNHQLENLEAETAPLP
T3 sequence (P33032 whole entry): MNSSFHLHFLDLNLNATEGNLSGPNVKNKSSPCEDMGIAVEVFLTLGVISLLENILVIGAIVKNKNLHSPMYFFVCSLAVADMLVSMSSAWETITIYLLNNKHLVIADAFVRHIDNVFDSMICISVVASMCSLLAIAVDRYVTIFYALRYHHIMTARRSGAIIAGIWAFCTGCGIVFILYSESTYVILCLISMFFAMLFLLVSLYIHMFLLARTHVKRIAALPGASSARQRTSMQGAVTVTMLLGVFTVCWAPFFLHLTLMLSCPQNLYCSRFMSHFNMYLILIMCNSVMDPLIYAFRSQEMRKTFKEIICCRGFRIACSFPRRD
T9 sequence (P32245 whole entry): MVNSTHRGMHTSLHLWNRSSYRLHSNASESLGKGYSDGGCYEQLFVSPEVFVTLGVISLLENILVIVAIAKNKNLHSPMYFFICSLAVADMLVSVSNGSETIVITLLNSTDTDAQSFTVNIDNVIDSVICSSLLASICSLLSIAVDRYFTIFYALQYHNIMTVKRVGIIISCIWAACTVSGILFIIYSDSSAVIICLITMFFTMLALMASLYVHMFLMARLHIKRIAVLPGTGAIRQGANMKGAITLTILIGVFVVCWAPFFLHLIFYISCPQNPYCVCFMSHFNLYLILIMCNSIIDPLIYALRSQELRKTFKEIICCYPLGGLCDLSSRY

SMILES	A8 radioligand binding inhibition [1]	A3 radioligand binding inhibition [2]	A5 radioligand binding inhibition [3]	A2 radioligand binding inhibition [4]	A10 radioligand binding inhibition ([5]; human ORL1 membranes)	A6 radioligand binding inhibition [6]	A1 radioligand binding inhibition [7]	A9 radioligand binding inhibition ([8]; human NPY-Y1 membranes)	A4 radioligand binding inhibition [9]	A11 radioligand binding inhibition [10]	A7 radioligand binding inhibition [11]	A8 radioligand binding, percentage inhibition ([1]; [125I]-Substance P)	A3 radioligand binding, percentage inhibition ([2]; [125I]-NDP-αMSH)	A5 radioligand binding, percentage inhibition ([3]; [125I]-NDP-αMSH)	A2 radioligand binding, percentage inhibition ([4]; [3H]-Diprenorphine)	A10 radioligand binding, percentage inhibition ([5]; [125I]-Nociceptin)	A6 radioligand binding, percentage inhibition [6]	A1 radioligand binding, percentage inhibition ([7]; [3H]-Bremazocine)	A9 radioligand binding, percentage inhibition ([8]; [125I]-PYY)	A4 radioligand binding, percentage inhibition ([9]; [125I]-NDP-αMSH)	further results
NCCC(=O)N[C@H]1C(OCc2ccc3ccccc3c2)O[C@H](COCc2ccccc2)[C@@H](O)[C@@H]1OCc1ccccc1 (stereo partly shown) [compound 450]	–	–	–	–	–	–	–	–	–	–	–	–	–	–	–	–	–	–	–	–	A8: inhibition of radioligand binding ([1]; [125I]-Substance P, human NK1 membranes): + (“+” indicates greater than 50% inhibition at 10 μM); A3: inhibition of radioligand binding ([2]; [125I]-NDP-αMSH, human MC3 membranes): − (“−” indicates less than 50% inhibition at 10 μM); A5: inhibition of radioligand binding ([3]; [125I]-NDP-αMSH, human MC5 membranes): − (“−” indicates less than 50% inhibition at 10 μM); A2: inhibition of radioligand binding ([4]; [3H]-Diprenorphine, human KOP membranes): − (“−” indicates less than 50% inhibition at 10 μM); A10: inhibition of radioligand binding ([5]; [125I]-Nociceptin, human ORL1 membranes): − (“−” indicates less than 50% inhibition at 10 μM); A6: inhibition of radioligand binding ([6]; [125I]-S36057, human MCH1 membranes): − (“−” indicates less than 50% inhibition at 10 μM); A1: inhibition of radioligand binding ([7]; [3H]-Bremazocine, human DOP membranes): − (“−” indicates less than 50% inhibition at 10 μM); A9: inhibition of radioligand binding ([8]; [125I]-PYY, human NPY-Y1 membranes): − (“−” indicates less than 50% inhibition at 10 μM); A4: inhibition of radioligand binding ([9]; [125I]-NDP-αMSH, human MC4 membranes): − (“−” indicates less than 50% inhibition at 10 μM); A11: inhibition of radioligand binding ([10]; [125I]-Urotensin II, mouse mUR2 membranes): − (“−” indicates less than 50% inhibition at 10 μM); A7: inhibition of radioligand binding ([11]; [3H]-Naloxone, human MOP membranes): − (“−” indicates less than 50% inhibition at 10 μM)
COC[C@H]1OC(OCCc2ccccc2)[C@H](NC(=O)CCNC(=N)N)[C@@H](OCc2ccc(Cl)cc2)[C@@H]1O (stereo partly shown) [compound 49]	+ (“+” indicates greater than 50% inhibition at 10 μM)	− (“−” indicates less than 50% inhibition at 10 μM)	− (“−” indicates less than 50% inhibition at 10 μM)	− (“−” indicates less than 50% inhibition at 10 μM)	− (“−” indicates less than 50% inhibition at 10 μM)	− (“−” indicates less than 50% inhibition at 10 μM)	− (“−” indicates less than 50% inhibition at 10 μM)	− (“−” indicates less than 50% inhibition at 10 μM)	+ (“+” indicates greater than 50% inhibition at 10 μM)	− (“−” indicates less than 50% inhibition at 10 μM)	− (“−” indicates less than 50% inhibition at 10 μM)	–	–	–	–	–	–	–	–	–	–
CO[C@H]1[C@H](O)[C@@H](COCc2cccc(O)c2)OC(OCc2ccc(-c3ccccc3)cc2)[C@@H]1NC(=O)CCNC(=N)N (stereo partly shown) [compound 147]	–	–	–	–	–	–	–	–	–	–	–	+ (“+” indicates greater than 50% inhibition at 10 μM)	− (“−” indicates less than 50% inhibition at 10 μM)	+ (“+” indicates greater than 50% inhibition at 10 μM)	+ (“+” indicates greater than 50% inhibition at 10 μM)	− (“−” indicates less than 50% inhibition at 10 μM)	+ (“+” indicates greater than 50% inhibition at 10 μM)	− (“−” indicates less than 50% inhibition at 10 μM)	− (“−” indicates less than 50% inhibition at 10 μM)	+ (“+” indicates greater than 50% inhibition at 10 μM)	A11 radioligand binding, percentage inhibition ([10]; [125I]-Urotensin II): − (“−” indicates less than 50% inhibition at 10 μM); A7 radioligand binding, percentage inhibition ([11]; [3H]-Naloxone): + (“+” indicates greater than 50% inhibition at 10 μM)
COCC1OC(OCc2ccccc2)C(NC(=O)CN)C(OCc2ccc(-c3ccccc3)cc2)C1O (stereo not shown) [compound 182]	–	–	–	–	–	–	–	–	–	–	–	+ (“+” indicates greater than 50% inhibition at 10 μM)	− (“−” indicates less than 50% inhibition at 10 μM)	− (“−” indicates less than 50% inhibition at 10 μM)	− (“−” indicates less than 50% inhibition at 10 μM)	− (“−” indicates less than 50% inhibition at 10 μM)	− (“−” indicates less than 50% inhibition at 10 μM)	− (“−” indicates less than 50% inhibition at 10 μM)	− (“−” indicates less than 50% inhibition at 10 μM)	− (“−” indicates less than 50% inhibition at 10 μM)	A11 radioligand binding, percentage inhibition ([10]; [125I]-Urotensin II): − (“−” indicates less than 50% inhibition at 10 μM); A7 radioligand binding, percentage inhibition ([11]; [3H]-Naloxone): − (“−” indicates less than 50% inhibition at 10 μM)
CO[C@H]1[C@H](O)[C@@H](COCc2ccccc2)OC(OCc2ccc3ccccc3c2)[C@@H]1NC(=O)CCCNC(=N)N (stereo partly shown) [compound 77]	+ (“+” indicates greater than 50% inhibition at 10 μM)	− (“−” indicates less than 50% inhibition at 10 μM)	+ (“+” indicates greater than 50% inhibition at 10 μM)	− (“−” indicates less than 50% inhibition at 10 μM)	− (“−” indicates less than 50% inhibition at 10 μM)	− (“−” indicates less than 50% inhibition at 10 μM)	− (“−” indicates less than 50% inhibition at 10 μM)	− (“−” indicates less than 50% inhibition at 10 μM)	− (“−” indicates less than 50% inhibition at 10 μM)	− (“−” indicates less than 50% inhibition at 10 μM)	+ (“+” indicates greater than 50% inhibition at 10 μM)	–	–	–	–	–	–	–	–	–	–
